Consider one molecule from patent US7718653B2, “Pyrimidine derivatives for inhibiting Eph receptors” (AstraZeneca AB, priority 2007, dated 2010).

The target of this assay is T1, recombinant EphB4 (Homo sapiens, UniProt P54760).
T1 construct: amino acids 563-987; Swiss-Prot Acc; No. P54760; purchased ProQinase GmbH 0178-0000-3
T1 sequence (P54760 563-987): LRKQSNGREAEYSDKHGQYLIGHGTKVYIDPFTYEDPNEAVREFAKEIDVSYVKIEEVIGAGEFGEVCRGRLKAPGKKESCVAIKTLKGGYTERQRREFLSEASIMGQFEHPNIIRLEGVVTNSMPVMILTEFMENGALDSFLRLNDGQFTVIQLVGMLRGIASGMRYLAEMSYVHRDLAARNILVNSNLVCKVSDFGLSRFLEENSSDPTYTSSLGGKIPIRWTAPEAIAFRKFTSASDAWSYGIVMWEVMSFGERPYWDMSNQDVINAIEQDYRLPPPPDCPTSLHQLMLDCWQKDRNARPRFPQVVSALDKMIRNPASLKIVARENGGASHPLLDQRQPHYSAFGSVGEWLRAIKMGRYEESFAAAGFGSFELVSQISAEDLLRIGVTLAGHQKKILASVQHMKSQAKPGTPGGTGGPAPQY
Nature of the assay: In vitro EphB4 enzyme assay (Alphascreen, phosphorylation of biotin-poly-GAT). As to conditions: method of compound preparation not stated; read-out: IC50 in assay A. The assay is classed as biochemical. The protocol:
A) In vitro EphB4 Enzyme Assay
This assay detects inhibitors of EphB4-mediated phosphorylation of a polypeptide substrate using Alphascreen™ luminescence detection technology. Briefly, recombinant EphB4 was incubated with a biotinylated-polypeptide substrate (biotin-poly-GAT) in presence of magnesium-ATP. The reaction was stopped by addition of EDTA, together with streptavidin-coated donor beads which bind the biotin-substrate containing any phosphorylated tyrosine residues. Anti-phosphotyrosine antibodies present on acceptor beads bind to phosphorylated substrate, thus bringing the donor & acceptor beads into close proximity. Subsequent excitation of the donor beads at 680 nm generated singlet oxygen species that interact with a chemiluminescer on the acceptor beads, leading to light emission at 520-620 nm. The signal intensity is directly proportional to the level of substrate phosphorylation and thus inhibition is measured by a decrease in signal.
Aqueous Compound Preparation:
Acoustic Compound Preparation:
To ensure that each well contained a total of 120 nl DMSO the wells were all backfilled as required. […] The test range of compounds was 100× the required final concentration.
Assay plates were then incubated at room temperature for 1 hour.
For assays using compounds prepared via acoustic dispensing, the assay mix was adjusted such that the final assay volume of 12 ul contained the same concentration of reagent as 10 ul of assay mix used when aqueous compounds were tested.
The plates were sealed under natural lighting conditions, wrapped in aluminium foil and incubated in the dark for a further 20 hours.
The resulting assay signal was determined on the Perkin Elmer EnVision plate reader. The minimum value was subtracted from all values, and the signal plotted against compound concentration to generate IC50 data. The method used to generate the compound dilutions was recorded with the IC50 value in the database.

As to `c1cc(Nc2ccnc(Nc3cc(N4CCOCC4)nc(N4CCOCC4)c3)n2)c2cn[nH]c2c1` [Example 3, N2-(2,6-dimorpholinopyridin-4-yl)-N4-(1H-indazol-4-yl)pyrimidine-2,4-diamine], the IC50 worked out at 0.243 µM.
